Read-outs that look alike come from different tables or passages of the source.
Key:
[1] = format: in vivo
From the text: Additional in vivo cancer studies are presented in a tabular form below. The data is presented in the following format—dose regimen in parenthesis, dosage in mg/kg: tumor growth suppression (tg supp.), toxic deaths/number of test subjects (deaths), % weight change (wt).

HT29 colon tumor cells = test: MTT cell viability test, colon tumor cells; format: cell-based, human; details: MTT, 5 day incubation
HCT116 (normal p53) = test: Selectivity in killing p53 abnormal cell lines, cell counts; format: cell-based; details: day 7
Description: (§1) Summary of lest results: Pairs of tumors of the same type were chosen, one expressing normal p53 and the other abnormal p53. Breast lines used were MCF7 for the normal p53, V4B, a MCF7 cells transformed with an empty vector, and VM4K, an MCF7 cells transfected with a vector encoding abnormal p53. In the colorectal cancer model HCT116 with a normal p53 was used and DLD-1 was used as the abnormal p53 cell line. The tumor cells were grown the presence and absence of carbendazim for 7 days. Cell growth rates were determined in each group by counting the cell numbers daily using a Coulter counter.

[2] = system: VM4K (MCF7 transfected with abnormal p53); test: as above; format: cell-based; details: day 7
Description: as §1

DLD-1 (abnormal p53) = test: as above; format: cell-based; details: day 7
Description: as §1

[3] = system: V4B (MCF7 transformed with empty vector); test: as above; format: cell-based; details: day 7
Description: as §1

MCF7 (normal p53) = test: as above; format: cell-based; details: day 7
Description: as §1

influenza = test: In vitro influenza model; format: cell-based
lung = format: in vivo; details: A549-lung, 500 mg/kg
[4] = system: HIV-1 in ACH-2 cells (T cell line A3.01); test: Additional chronic HIV studies, T cells; format: cell-based; details: concentration not given
Description: Chronic HIV-1 infected cells U1 were derived from an acute HIV-1 infection of the promonocytic cell line, U937. The chronic HIV-1 infected cells, ACH-2 were derived from an acute HIV-1 infection of the T cell line, A3.01.
These cells were cultured in medium and the phorbol ester, PMA. PMA causes the cells (both U1 and ACH-2) to be activated and not divide but it also causes the U-1 cells to differentiate. […] Cell viability was measured when these cell lines were treated with the test compound.
Both cell lines constituitively produce a small amount of HIV-1. ACH-2 cell lines tend to produce more HIV-1 than U1 cells as shown by p24 ELISA. When either cell line is cultured in the presence of PMA there is an increase in the quantity of HIV-1 produced as measured by the p24 antigen ELISA.
In addition, the number of […] positive HIV mRNA expressing cells per microscopic field is measured. Comparisons can be made from these numbers since the same number of cells were adhered to the glass slides for each drug concentration 10×10^6 cells/ml).
These cells were treated with test samples. […] The positive control was interferon which suppressed HIV monocytes replication by 80%.

[5] = system: MX1 breast cancer tumors implanted subcutaneously; test: Tumor growth reduction in mice models (Table 5), breast; format: in vivo; details: MXI-breast
colon = test: Tumor growth reduction in mice models (Tables 5 and 6), colon; format: in vivo; details: HT29-colon, 2500 mg/kg
Oral LD50 = details: mouse, in vivo, mice
A549 lung tumor cells = test: MTT cell viability test, lung tumor cells; format: cell-based, human; details: MTT, 5 day incubation
P388 = test: P-388 model for leukemia, T/C; format: in vivo, mice
From the text: In the P-388 model for leukemia there was a dose responsive effect and the results were good.
The NCI Measure of Success is T/C=125.

[6] = DU-145, 4000 mg/kg twice weekly
[7] = DU-145, 5000 mg/kg twice weekly
[8] = DU-145, 6000 mg/kg twice weekly
[9] = HT29 (colon), 2000 mg/kg twice weekly
[10] = HT29 (colon), 3000 mg/kg twice weekly
[11] = HT29 (colon), 4000 mg/kg twice weekly
[12] = HT29 (colon), 5000 mg/kg twice weekly
[13] = HT29 (colon), 6000 mg/kg twice weekly
[14] = MCF-7L (breast), 4000 mg/kg twice weekly
[15] = MCF-7L (breast), 5000 mg/kg twice weekly
[16] = MX1 xenograft, 4000 mg/kg twice weekly
[17] = MX1 xenograft, 5000 mg/kg twice weekly
[18] = MX1 xenograft, 6000 mg/kg twice weekly
[19] = SK-MES, 4000 mg/kg twice weekly
[20] = SK-MES, 5000 mg/kg twice weekly
[21] = SK-MES, 6000 mg/kg twice weekly

In the case of `COC(=O)Nc1nc2ccccc2[nH]1` [carbendazim, 2-methoxycarbonylamino-benzimidazole], the “% weight change (wt)” value ([1]; A549 (lung), 500 mg/kg) is reported as “+10%”, the “toxic deaths/number of test subjects (deaths)” value (from here on “toxic deaths/number”) ([1]; A549 (lung), 500 mg/kg) is reported as 0/10 and the “tumor growth suppression (tg supp.)” value ([1]; A549 (lung), 500 mg/kg) is reported as 57%. For the same compound, the “toxic deaths/number” value ([1]; A549 (lung), 2500 mg/kg) was 10/10, the “% weight change (wt)” value [1, 6] was −5% and the “toxic deaths/number” value [1, 6] was 0/10. For the same compound, the “tumor growth suppression (tg supp.)” value [1, 6] was 52%, the “% weight change (wt)” value [1, 7] was −8% and the “toxic deaths/number” value [1, 7] was 1/10. The “tumor growth suppression (tg supp.)” value [1, 7] was 48%, the “% weight change (wt)” value [1, 8] was −6% and the “toxic deaths/number” value [1, 8] was 1/10. The “tumor growth suppression (tg supp.)” value [1, 8] was 33%, the “% weight change (wt)” value [1, 9] was “+3%” and the “toxic deaths/number” value [1, 9] was 0/10. The “tumor growth suppression (tg supp.)” value [1, 9] was 36%, the “% weight change (wt)” value [1, 10] was −6% and the “toxic deaths/number” value [1, 10] was 2/10. The “tumor growth suppression (tg supp.)” value [1, 10] was 65%, the “% weight change (wt)” value [1, 11] was −12% and the “toxic deaths/number” value [1, 11] was 3/10. The “tumor growth suppression (tg supp.)” value [1, 11] was 78%, the “% weight change (wt)” value [1, 12] was −8% and the “toxic deaths/number” value [1, 12] was 2/10. For the same compound, the “tumor growth suppression (tg supp.)” value [1, 12] was 79%, the “% weight change (wt)” value [1, 13] was −25% and the “toxic deaths/number” value [1, 13] was 9/10. For the same compound, the “tumor growth suppression (tg supp.)” value [1, 13] was 97%, the “% weight change (wt)” value [1, 14] was −7% and the “toxic deaths/number” value [1, 14] was 5/10. For the same compound, the “tumor growth suppression (tg supp.)” value [1, 14] was 94%, the “% weight change (wt)” value [1, 15] was −8% and the “toxic deaths/number” value [1, 15] was 7/10. For the same compound, the “tumor growth suppression (tg supp.)” value [1, 15] was 100%, the “toxic deaths/number” value ([1]; MCF-7L (breast), 6000 mg/kg twice weekly) was 10/10 and the “% weight change (wt)” value [1, 16] was −1%. For the same compound, the “toxic deaths/number” value [1, 16] was 0/10, the “tumor growth suppression (tg supp.)” value [1, 16] was 48% and the “% weight change (wt)” value [1, 17] was −4%. For the same compound, the “toxic deaths/number” value [1, 17] was 1/10, the “tumor growth suppression (tg supp.)” value [1, 17] was 63% and the “% weight change (wt)” value [1, 18] was −4%. The “toxic deaths/number” value [1, 18] was 1/9, the “tumor growth suppression (tg supp.)” value [1, 18] was 70% and the “% weight change (wt)” value [1, 19] was “+3%”. The “toxic deaths/number” value [1, 19] was 2/10, the “tumor growth suppression (tg supp.)” value [1, 19] was 45% and the “% weight change (wt)” value [1, 20] was “+2%”. For the same compound, the “toxic deaths/number” value [1, 20] was 1/10, the “tumor growth suppression (tg supp.)” value [1, 20] was 44% and the “% weight change (wt)” value [1, 21] was −2%. For the same compound, the “toxic deaths/number” value [1, 21] was 3/10, the “tumor growth suppression (tg supp.)” value [1, 21] was 69% and the “EC-50 Result” value (HT29 colon tumor cells; HT29, first column) was 0.621 ppm. The “EC-50 Result” value (HT29 colon tumor cells; HT29, second column) was 0.662 ppm, the “cell counts, % of the control” value (HCT116 (normal p53); HCT 116, 1 μg/ml) was 78% and the “cell counts, % of the control” value (HCT116 (normal p53); HCT116, 5 μg/ml) was “less than 10%”. The “cell counts, % of the control” value (HCT116 (normal p53); HCT116, 10 μg/ml) was “less than 10%”, the “cell counts, % of the control” value ([2]; 5 μg/ml) was “less than 10%” and the “cell counts, % of the control” value ([2]; 10 μg/ml) was “less than 10%”. The “cell counts, % of the control” value (DLD-1 (abnormal p53); DLD1, 1 μg/ml) was 34%, the “cell counts, % of the control” value (DLD-1 (abnormal p53); DLD-1, 5 μg/ml) was “less than 10%” and the “cell counts, % of the control” value (DLD-1 (abnormal p53); DLD-1, 10 μg/ml) was “less than 10%”. The “cell counts, % of the control” value ([3]; 5 μg/ml) was “less than 10%”, the “cell counts, % of the control” value ([3]; 10 μg/ml) was “less than 10%” and the “cell counts, % of the control” value (MCF7 (normal p53); 5 μg/ml) was 45%. For the same compound, the “cell counts, % of the control” value (MCF7 (normal p53); 10 μg/ml) was 36%, the activity (influenza) was “no activity” and the “Tumor Growth Decrease (%)” value (lung) was 57%. The “increase of T-cell HIV replication” value [4] was 44%, the “Tumor Growth Decrease (%)” value ([5]; 500 mg/kg) was 42% and the “Tumor Growth Decrease (%)” value ([5]; 2500 mg/kg) was 37%. The “Tumor Growth Decrease (%)” value (colon) was 54%, the LD50 (Oral LD50) was 11000 mg/kg and the “EC-50 Result” value (A549 lung tumor cells; A549, first column) was 0.856 ppm. The “EC-50 Result” value (A549 lung tumor cells; A549, second column) was 0.836 ppm, the T/C (P388; 500 mg/kg twice weekly) was 141 and the “weight change (%)” value (P388; 500 mg/kg twice weekly) was −0.64%. The T/C (P388; 1000 mg/kg twice weekly) was 176, the “weight change (%)” value (P388; 1000 mg/kg twice weekly) was −4.75% and the T/C (P388; 1250 mg/kg twice weekly) was 124. The “weight change (%)” value (P388; 1250 mg/kg twice weekly) was “+1.99%”, the T/C (P388; 2000 mg/kg twice weekly) was 169 and the “weight change (%)” value (P388; 2000 mg/kg twice weekly) was −11.63%. For the same compound, the T/C (P388; 2500 mg/kg twice weekly) was 169, the “weight change (%)” value (P388; 2500 mg/kg twice weekly) was “+3.16%” and the T/C (P388; 5000 mg/kg twice weekly) was 198. The “weight change (%)” value (P388; 5000 mg/kg twice weekly) was −0.64%, the “Increased Life Span” value (P388; P388-luekemia, 1000 mg/kg) was 129% and the “Increased Life Span” value (P388; P388-luekemia, 2000 mg/kg) was 148%. For the same compound, the decreased life span (P388; P388-luekemia, 4000 mg/kg, printed in column Increased Life Span) was 9%.

— patent publication US6362207B1, “Methods of treating viral infections with benzimidazoles” (priority 1995, dated 2002)
